Legend:
[1] = tested on: oédème plantaire provoqué par la carraghénine chez le rat; test: Anti-inflammatory activity: carrageenan-induced plantar oedema; type: in vivo; conditions: dose 0,4 mg/kg oral, given simultaneously with carrageenan; rat paw volume versus controls
Text: L'activité anti-inflammatoire a été déterminée sur le test de l'oédème plantaire provoqué par la carraghénine chez le rat.
On administre, à des rats mâles pesant de 130 à 150 g, 0,05 cm3 d'une suspension stérile à 1% de carraghénine dans l'articulation tibio-tarsienne d'une patte postérieure.
Simultanément, on administre le produit à étudier dans une suspension de carboxyméthylcellulose à 0,25% et de Tween à 0,02% par voie orale.
Le volume de la patte est mesuré avant l'administration, puis 2 heures, 4 heures, 6 heures, 8 heures et 24 heures après.
L'intensité de l'inflammation est maxima 4 à 6 heures après l'injection de carraghénine. La différence du volume des pattes des animaux traités et des témoins met en évidence l'action anti inflammatoire du médicament.

souris = conditions: mouse, in vivo, po, 11520 min
Text: On a évalué les doses létales DLO des différents composés testés après administration par voie orale chez la souris.
On appelle DLO la dose maximale ne provoquant aucune mortalité en 8 jours.

[2] = tested on: rats mâles Sprague-Dawley; test: Anti-ulcer activity: Shay method modified by Guth (pylorus ligation plus aspirin/HCl gastric lesions); type: in vivo; conditions: dose 0,4 mg/kg per os one hour before pylorus ligation; aspirin 200 mg/kg per os; Sprague-Dawley rat; mean ulcer score
Method: L'essai est effectué selon la méthode de Shay modifiée par GUTH (GUTH, P.H. et coll, Topical aspirin plus HCl gastric lesions in the rat. Gastroenterology 1979,76, 88-93.) Des rats mâles Sprague-Dawley d'un poids voisin de 250 g, à jeun depuis 48 heures sauf boisson, ont été utilisés. On pratique sous légère anesthésie à l'halothane, la ligature du pylore et une . heure plus tard, on administre l'aspirine per os à la dose de 200 mg/kg, en suspension dans la carboxyméthylcellulose à 0,25% renfermant 15% d'acide chlorhydrique N. Deux heures plus tard, on sacrifie les animaux, prélève et examine les estomacs. Chaque lésion ulcéreuse est cotée de la façon suivante :
La somme des cotations est calculée pour chaque estomac, et le score moyen est établi.pour chaque lot.
Les substances à étudier sont administrées per os une heure avant la ligature.

| Compound | protège les animaux traités (activité anti-inflammatoire) [1] [%] | DL0 (souris) [mg/kg] | protège les animaux traités (activité antiulcéreuse) [2] [%] |
| --- | --- | --- | --- |
| CC(C)NCC(O)c1cccc2c1CC(=O)N2 (stereo not shown) [exemple 1, 1,3-dihydro 4-/2-(1-méthyléthylamino) 1-hydroxy éthyl/ 2H-indol-2-one] | 61 | 200 | – |
| O=C1Cc2c(cccc2C(O)CNCC2CC2)N1 (stereo not shown) [exemple 5, Chlorhydratede 1,3-dihydro 4-/1-hydroxy 2-(cyclo-propylméthylamino) éthyl/ 2H-indol-2-one] | – | 200 | – |
| CNCC(O)c1cccc2c1CC(=O)N2 (stereo not shown) [compound 3, 1,3-dihydro 4-(1-hydroxy 2-(méthylamino)éthyl) 2H-indol-2-one] | – | > 400 | – |
| CCCNCC(O)c1cccc2c1CC(=O)N2 (stereo not shown) [exemple 2, 1,3-dihydro 4-/1-hydroxy 2-(propylamino)éthyl/ 2H-indol-2-one] | – | 200 | 60 |
| CCNCC(O)c1cccc2c1CC(=O)N2 (stereo not shown) [compound 7, Chlorhydratede 1,3-dugtdri 4-/(1-hydroxy 2-éthyl-amino) éthyl/ 2H-indol-2-one] | – | > 400 | – |

Source: patent EP0099766A1, “1-3-Dihydro 4-(1-hydroxy-2-amino-ethyl)-2H-indol-2-one derivatives, their salts, process for their preparation, their use as medicines and compositions containing them” (ROUSSEL-UCLAF, priority 1982, dated 1984)
